From ChEMBL document CHEMBL3507680, “University of Dundee, Gates Library screen for HepG2 cell viability” come the findings set out here.

The data set in a line: Human HepG2 cell viability assay in 384 well format. It is filed as toxicity, cell-based. Set-up: dose 125 nL, time 70.5 hour; concentration not given beside the values. To be noted: HepG2 cells, read-out: Inhibition.

For `CN(C)CCOc1ccccc1N1CCN(C(=O)c2ccoc2)CC1`, the cytotoxicity at 70.5 h is 2.2%.

With `CC(NC(=O)N1CCS(=O)(=O)CC1)c1ccc(F)cc1Cl` (centres undefined), the cytotoxicity at 70.5 h is -1.2%.

For `CC(CNC(=O)c1cccc(-n2cccn2)n1)Cn1ccnc1` (centres undefined), the cytotoxicity at 70.5 h was -2.98%.

Take `CC(C)c1cc(C(=O)N(c2ccc(F)cn2)C2CCOCC2)nn1C`: the cytotoxicity at 70.5 h stood at 3.21%.

For the molecule `O=C(c1ccncc1F)N1CCOC(c2cccc(O)c2)C1` (centres undefined), the cytotoxicity at 70.5 h stood at 2.22%.

As for `COc1ccc(-c2nc(CSC3CCCCNC3=O)co2)cc1` (centres undefined), the cytotoxicity at 70.5 h is -3.03%.

For `CCn1ccnc1CN1CCCN(C(=O)C2(C#N)CCCCC2)CC1`, the cytotoxicity at 70.5 h is -3.94%.

Turning to `O=C(Cc1cccs1)N1CCOC(c2cccc(O)c2)C1` (centres undefined), the cytotoxicity at 70.5 h turned out to be 0.631%.

As to `COc1ccc(C)cc1C1(CNc2cn[nH]c(=O)c2Cl)CCOCC1`, the cytotoxicity at 70.5 h is -5.9%.

Turning to `Cc1ccc(O)c(C(=O)NCCCS(=O)(=O)Cc2ccccc2)c1`, the cytotoxicity at 70.5 h was -11.4%.

Regarding `NC(=O)CCOc1ccc(NC(=O)c2ccccc2OC(F)F)cc1`, the cytotoxicity at 70.5 h turned out to be 3.32%.

`CCNC(=O)Nc1cccc(F)c1C(=O)NC1CCCC1`: the cytotoxicity at 70.5 h is -6.92%.

`O=C(CCc1cc(Br)cs1)NCCCn1ccnc1`: the cytotoxicity at 70.5 h came to 5.85%.

Take `CCn1nnnc1-c1cccc(NC(N)=O)c1`: the cytotoxicity at 70.5 h was -5.79%.

For `CC1CS(=O)(=O)CCN1Cc1ccccc1OCC(F)(F)F` (centres undefined), the cytotoxicity at 70.5 h is -6.75%.

Regarding `O=c1[nH]c(=O)n(CC(O)c2ccccc2Cl)cc1Cl` (centres undefined), the cytotoxicity at 70.5 h was -5.98%.

As for `CC(C)NC(=O)CCNC(=O)CCc1cc(Br)cs1`, the cytotoxicity at 70.5 h is -6.47%.

On to `CC(C)(C)c1ccc2c(c1)CCN2C(=O)c1nc(=O)[nH][nH]1`, for which the cytotoxicity at 70.5 h amounted to 0.34%.

For the molecule `Cc1cncc(NCc2ccccc2N2CCOCC2)c1`, the cytotoxicity at 70.5 h turned out to be 3.08%.

With `O=S(=O)(c1ccccc1)N1CCCC(Cn2cncn2)C1` (centres undefined), the cytotoxicity at 70.5 h was -4.76%.

Turning to `CCC(C)C(=O)NCc1ccn(-c2ccc(F)cc2)n1` (centres undefined), the cytotoxicity at 70.5 h came to 8.14%.

Regarding `O=C(Cc1ccc(F)cc1)NCc1ccc(C(=O)O)o1`, the cytotoxicity at 70.5 h is -2.52%.

For `O=C(C1CCOc2ccccc21)N1CCOc2ccc(F)cc21` (centres undefined), the cytotoxicity at 70.5 h was -9.88%.

With `CC(C)n1nc2c(cc1=O)CN(CC1CCCCO1)CC2` (centres undefined), the cytotoxicity at 70.5 h was -5.1%.

Consider `CCC(C(=O)NCc1ccn(-c2ccc(F)cc2)n1)N1CCCC1=O` (centres undefined), for which the cytotoxicity at 70.5 h came to 5.43%.

Regarding `CCN(Cc1ccoc1)C(=O)c1ccncc1O`, the cytotoxicity at 70.5 h is -9.48%.

Consider `COc1ccc(NC(=O)c2cccc(OC)c2OC)cc1`, for which the cytotoxicity at 70.5 h was -3.77%.

As for `CN(CC(=O)NCC(F)(F)F)Cc1cccc2c1OCCO2`, the cytotoxicity at 70.5 h was found to be 14.8%.

Regarding `CC(OCC1CC1)C(=O)Nc1nccn1Cc1ccccc1` (centres undefined), the cytotoxicity at 70.5 h was -14.6%.

Regarding `CN(Cc1cc(Br)c2c(c1)OCO2)Cc1cscn1`, the cytotoxicity at 70.5 h was -14.1%.

On to `COc1cc(F)ccc1NC(=O)NC(C)C(=O)NC(C)(C)C` (centres undefined), for which the cytotoxicity at 70.5 h is -4.93%.

`Cc1ccc(C)c(CC(=O)NC2CCS(=O)(=O)CC2)c1`: the cytotoxicity at 70.5 h was -10.2%.

`Cc1noc(C)c1C(C)NC(=O)N1CCCN(C(=O)c2ccsc2)CC1` (centres undefined): the cytotoxicity at 70.5 h is -13.8%.

Regarding `CC(C)Nc1ncccc1C(=O)NC1CC(=O)N(CC(F)(F)F)C1` (centres undefined), the cytotoxicity at 70.5 h is -2.71%.

For `CCCNC(=O)CCNC(=O)N1CCC(=Cc2ccccc2)CC1`, the cytotoxicity at 70.5 h is -4.61%.

Turning to `NC(=O)C1CCCN1CCCc1ccc(C(F)(F)F)cc1` (centres undefined), the cytotoxicity at 70.5 h was -5.39%.

Turning to `CC(NC(=O)Nc1cccnc1N1CCOCC1)c1ccccn1` (centres undefined), the cytotoxicity at 70.5 h is -8.36%.

As for `CNC(=O)N1CCC(=Cc2ccccc2)CC1`, the cytotoxicity at 70.5 h was -12%.

For the molecule `NC(=O)C1CCN(CCCc2ccc(C(F)(F)F)cc2)CC1`, the cytotoxicity at 70.5 h is 3.34%.

For the molecule `Cc1ccc(CNC(=O)NC2CCC(O)CC2)c(N2CCCC2)c1` (centres undefined), the cytotoxicity at 70.5 h was -10.5%.

As for `Cc1ccc(CNC(=O)NCC(=O)NC(C)(C)C)c(N2CCCC2)c1`, the cytotoxicity at 70.5 h was -16.8%.

As for `N#CC1(NC(=O)c2nccc3ccccc23)CCSCC1`, the cytotoxicity at 70.5 h was -9.79%.

Take `CSC(C)C(=O)NS(=O)(=O)CCc1ccccc1` (centres undefined): the cytotoxicity at 70.5 h is -2.58%.

Consider `CC(C)CC(CCO)CNC(=O)N1CCOC2(CCCC2)C1` (centres undefined), for which the cytotoxicity at 70.5 h was -1.95%.

As to `CCc1noc(C(C)N2CCN(CCc3ccncc3)CC2)n1` (centres undefined), the cytotoxicity at 70.5 h was -5.36%.

For `CCn1ccnc1CN1CCN(C(C)C(=O)NCc2ccco2)CC1` (centres undefined), the cytotoxicity at 70.5 h was 16.6%.

With `CC(C)n1cnnc1CNC(=O)c1cnc2ccccc2n1`, the cytotoxicity at 70.5 h is -3.77%.

As to `OC1(CN2CCOC(Cn3cncn3)C2)CCCCC1` (centres undefined), the cytotoxicity at 70.5 h was determined as 2.37%.

As for `O=C1CCN(C(=O)NCc2cccc(Oc3ccccc3)c2)CCN1`, the cytotoxicity at 70.5 h was -6.34%.

Take `CC(C)(C)C1CCC(O)(CNC(=O)CCS(C)(=O)=O)CC1` (centres undefined): the cytotoxicity at 70.5 h was -4.23%.

With `O=C1CCN(C(=O)NCc2ccccc2Oc2ccccc2)CCN1`, the cytotoxicity at 70.5 h was 2.87%.

Consider `CC(=O)NCCC(=O)NC(C)c1sc(-c2ccccc2F)nc1C` (centres undefined), for which the cytotoxicity at 70.5 h is -5.17%.

For `Cn1c(=O)n(C)c2cc(NS(=O)(=O)Cc3cccc(F)c3)ccc21`, the cytotoxicity at 70.5 h is -6.9%.

For the molecule `N#Cc1ccc(CN2CCN(c3cncc(Cl)n3)CC2=O)cc1`, the cytotoxicity at 70.5 h was -4.86%.

Regarding `CCOc1ccc(Cl)c(C(=O)N2CCCC(c3cc(C)[nH]n3)C2)n1` (centres undefined), the cytotoxicity at 70.5 h was -2.21%.

In the case of `O=C(c1sccc1-n1cnnn1)N1CCC2(CCCCC2)CC1`, the cytotoxicity at 70.5 h was determined as 11.8%.

For the molecule `CC(Cn1cncn1)NC(=O)N1CC2(CCCC2)c2ccccc21` (centres undefined), the cytotoxicity at 70.5 h is -1.39%.

For the molecule `CNC(=O)C1CCCN1C(=O)NCCCc1cccc(F)c1` (centres undefined), the cytotoxicity at 70.5 h is 1.01%.

For `Cc1cc(C(=O)Nc2ccc(-c3nnc(N(C)C)o3)cc2)oc1C`, the cytotoxicity at 70.5 h was 14.7%.

Regarding `O=C(NCc1ccc(Br)cc1)C1(O)CCSCC1`, the cytotoxicity at 70.5 h is -1.14%.

As for `O=C(NCc1cc(F)cc(Br)c1)C1(O)CCSCC1`, the cytotoxicity at 70.5 h was -4.03%.

Consider `O=C(NCc1ccc(Br)cc1F)C1(O)CCSCC1`, for which the cytotoxicity at 70.5 h is -2.81%.

With `CCOc1ccc(Cl)c(C(=O)N2CCCC(N3CCCC3)C2)n1` (centres undefined), the cytotoxicity at 70.5 h was -2.98%.

Consider `CC(C)c1nccn1CCC(=O)NCC(C)(O)c1ccco1` (centres undefined), for which the cytotoxicity at 70.5 h was -5.68%.

As to `CC(C)COC(=O)N1CCCN(C(C)c2nc(C(C)C)no2)CC1` (centres undefined), the cytotoxicity at 70.5 h is -3.98%.

In the case of `CCc1nnc(C(C)N2CCCN(C(=O)OCC(C)C)CC2)o1` (centres undefined), the cytotoxicity at 70.5 h was determined as 7.35%.

As for `O=C(c1ccn(-c2ccc(F)cc2)n1)N(CCO)Cc1cccnc1`, the cytotoxicity at 70.5 h turned out to be 15.5%.

Turning to `Cc1noc(C)c1CN(C)CC1CC(C2CCCCC2)=NO1` (centres undefined), the cytotoxicity at 70.5 h was -2.46%.

Consider `CC(C)c1nc(CNc2ccc(N3CCC(CO)CC3)cn2)cs1`, for which the cytotoxicity at 70.5 h came to 1.5%.

With `Cc1cc(CN(C)C(=O)NCc2ccco2)no1`, the cytotoxicity at 70.5 h was -2.34%.

`Cc1noc(C)c1CN(C)C(=O)NC(C)Cc1ccco1` (centres undefined): the cytotoxicity at 70.5 h was -1.49%.

On to `COc1ccc2c(c1)CN(c1nc(C)cc(C)n1)CC2`, for which the cytotoxicity at 70.5 h worked out at 3.73%.

Consider `CS(=O)(=O)c1ccc2c(c1)N(C(=O)Cc1cccc(F)c1)CCC2`, for which the cytotoxicity at 70.5 h was -0.9%.

Regarding `CC(NC(=O)Nc1cnn(CC(N)=O)c1)c1ccc(Cl)s1` (centres undefined), the cytotoxicity at 70.5 h is -1.05%.
